Source: patent publication US20250221981A1, “MAT2A INHIBITOR AND/OR TSG101 INHIBITOR FOR USE IN ANTIVIRAL THERAPY” (CAMBRIDGE ENTERPRISE LIMITED, priority 2022, published 2025)

How the values were obtained:
BKPyV [1] = experiment: Fluorescence focus unit (FFU) assay of infectious BKPyV from treated RPTE/TERT1 cells; assay type: cell-based, BK polyomavirus; settings: for reduction in infectious virus production: BKPyV MOI 1
Method: (B) Effect of PF-9366 on viral replication: Cells were infected with BKPyV (MOI 1) in media containing appropriate drug concentrations. At 1 hpi infectious media was removed, cells were washed and fresh media with appropriate drug concentrations was added. At 48 hpi cells were harvested and infectious BKPyV was measured by FFU assay. n=3.
(§1) Cells were treated with MAT2A inhibitors at 1 hr post infection and were harvested at 48 hr post infection at MOI 1. (A) Total infectious BKPyV synthesis expressed as fold change to DMSO control (FFU titre assay). (B) Total viral protein expression (LTAg and VP1) was analysed by western blot. Tubulin was used as loading control. All error bars represent SEM. Two sample paired T-test was used to determine significance (*p<0.05; **p<0.01; ***p<0.001, ****p<0.0001), all numerical data shown were obtained over 2 independent experiments.
(§2) RPTE/hTERT cells were treated with inhibitors at 1 hr post infection (PI), infected at MOI 1. (A) Viral growth curves using FFU titre assay in drug treated and untreated cells infected with BKPyV at MOI 1 for 48 hr PI, 72 hr PI and 96 hr PI. (B) Total viral protein expression (LTAg and VP1) from drug treatments and untreated control was analysed by western blot with samples harvested at 48 hr PI and 96 hr PI. Tubulin was used as loading control. All error bars represent SEM. All numerical data shown were obtained over 2 independent experiments.
The ability for PF-9366 to inhibit the production of infectious virus was then investigated. RPTE/TERT1 cells were once again treated with a concentration range of PF-9366 or DMSO as a control prior to infection, and as before, infected with BKPyV (MOI 1) then washed and media replaced at 1 hpi. At 48 hpi total virus was harvested from each condition and an FFU assay was conducted to determine BKPyV virus titre (FIG. 3B).
For BKPyV infections, RPTE/TERT1, RPTE/TERT1-Cas9 or RPTE/TERT1 MAT2A KO cells were infected with BKPyV at either a multiplicity of infection (MOI) of 5 for growth curves or an MOI of 3 or 1 for all other experiments, diluted in appropriate medium. At 1 hour post infection (hpi) medium was removed, cells were washed twice with phosphate-buffered saline (PBS), and fresh medium was added with or without inhibitors. At 24, 48, 72 or 96 hpi cells were either harvested for western blot, RT qPCR or virus titre by FFU assay, or fixed for immunofluorescence analysis.
FFU assays were used to determine the concentration of infectious BKPyV in experimental samples. RPTE/TERT1 cells were infected with sample dilutions, fixed at 48 hpi in 3% formaldehyde, and immunostained for VP1 expression as described in Evans et al. (Open Biol. 2015 August; 5 (8): 150041).
Example 1: PF-9366 (Sigma-Aldrich) and AG-270 (kindly supplied by Astra Zeneca) were diluted in 100% DMSO. Cells were drug treated at a range of concentrations in REBM supplemented with BulletKit (Lonza) for 3 hours prior to infection. Cells were infected with BK-Dunlop in media and appropriate drug dilution. At 1 hpi infectious media was removed, cells gently washed with PBS and media containing appropriate drug dilutions was added. At 48 hpi cells were either fixed in 3% formaldehyde for microscopy, or harvested by scraping up into fresh drug-free media.
TSG101 inhibitor Ilaprazole (Sigma-Aldrich) was diluted in 100% DMSO. Cells were treated at a range of inhibitor concentrations and combinations, in appropriate media for the cell type used, for either 3 hours prior to infection (HSV-1, Alphavirus and Flavivirus infections) or 1 hour post infection (BKPyV infection).

BKPyV [2] = experiment: Western blot of BKPyV viral protein expression (LTAg, VP1) in RPTE/TERT1 cells; assay type: cell-based, BK polyomavirus
Method: (C)(i) Effect of PF-9366 on viral early and late gene and cellular MAT2A expression: Cells were infected with BKPyV (MOI 3) in media containing appropriate drug concentrations. At 1 hpi infectious media was removed, cells were washed and fresh media with appropriate drug concentrations was added. Cells were harvested at 48 hpi and a western blot performed. Membranes were blotted for viral late gene VP1, LTAg, cellular MAT2A/MAT1A, and tubulin as a loading control.
(iii) Viral gene expression is modulated in response to PF-9366: The density of BKPyV VP1 and LTAg expression were measured, normalized to tubulin loading control (LiCor Image Studio Software), n=3.
as §1, §2
It has previously been noted by Quinlan et al. (Nat Chem Biol. 2017 13 (7): 785-792) that treatment with PF-9366 can increase MAT2A expression as a compensatory mechanism within cells. To investigate this, cells were once again treated with a range of PF-9366 for 3 hours prior to infection (or DMSO treated). Cells were infected with BKPyV (MOI 3), washed at 1 hpi, and fresh drug treated media was added. At 48 hpi cells were harvested and protein expression was analysed by western blotting (FIG. 3C(i)). MAT2A expression was quantified from band intensities, normalised to the tubulin loading control and plotted (FIG. 3C(ii), n=3). A clear increase in the cellular expression of MAT2A was observed, up to an 8-fold increase at 10 μM PF-9366. Western blot analysis was also conducted on early viral gene (LTAg) and late viral gene (VP1) expression (FIG. 3C(iii), n=3).
Cell lysate preparation and western blots were performed as described in Ren et al. (J Gen Virol. 2012 February; 93 (Pt 2): 319-329). Primary antibodies used were ab53977 (VP1), PAb416 (LTAg), sc-166452 (MAT2A/1A), ab110226 (VP16), sc-53070 (ICP0), anti-Zika E Protein, and either anti-GAPDH or anti-tubulin as a loading control, followed by IRDye 680LT-, or IRDye 800CW-conjugated secondary antibodies. Imaging was performed using the LI-COR Odyssey Infrared Imaging system. Quantification was performed using LI-COR Image Studio Software.

[3] = 125 nM to 1 μM, dose dependent, MOI 1, 48 hr post infection

SMILES	inhibition of BKPyV replication (total infectious BKPyV, FFU titre) (BKPyV [1]; 125 nM, 250 nM, 500 nM and 1 μM, added 1 hr post infection, MOI 1, 48 hr post infection)	potency against BKPyV replication (BKPyV [1]; AG270 1 μM or AZ33 125 nM in conjunction with Ilaprazole (5 μM), compared with MAT2A inhibitor alone)	early viral protein (LTAg) levels (western blot) (BKPyV [2]; [3])	late viral protein (VP1) levels (western blot) (BKPyV [2]; [3])	reduction in infectious virus production (BKPyV [1]; 2.5 μM (lowest concentration), 48 hpi) [%]	reduction in viral titre for BKPyV (BKPyV [1]; 2.5 μM, MOI 1, 48 hpi)	reduction in infectious virus production (BKPyV [1]; 40 μM (maximum), 48 hpi) [%]	VP1 expression (western blot) (BKPyV [2]; across the concentration range of PF-9366, BKPyV MOI 3, 48 hpi)	expression of LTAg (western blot) (BKPyV [2]; two highest concentrations of PF-9366, BKPyV MOI 3, 48 hpi)
COc1ccc(-c2c(Nc3ccccn3)[nH]c3c(C4=CCCCC4)c(-c4ccccc4)nn3c2=O)cc1 [AG-270]	significant dose dependent inhibition	increased potency	reduced	reduced	–	–	–	–	–
CN(C)CCc1nnc2cc(-c3ccccc3)c3cc(Cl)ccc3n12 [PF-9366]	–	–	–	–	60	2-3 fold	~95	dose-dependent reduction	Reduced expression
